Patent US8524744B2, “Arylamine ketones, their preparation methods, the pharmaceutical composition containing them and their use” (Institute of Mataria Medica, Chinese Academy of Medical …, priority 2004, dated 2013)
Counter-ions that a name gives are not always drawn.

Legend:
[1] = system: polymorphonuclear leucocytes from rat pleural cavity; assay: release of β-glucuronidase by polymorphonuclear leucocytes from rat pleural cavity in vitro (PAF as irritant); type: cell-based
Method in brief: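 Carrageenan-elicited pleural PMNs from Wistar rats (2.5×10^6 cells/ml, Dulbecco's buffer) were incubated with compound 15 min at 37° C, then cytochalasin B 5 min, then PAF 5 min. β-Glucuronidase in supernatant was assayed with phenolphthalein-glucuronic acid, 18 h at 37° C, OD 550 nm after NaOH.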

[2] = molecular target: T1, PAF receptors of macrophages from mouse peritoneal cavity (Mus musculus, UniProt Q62035); assay: competitive binding of [3H]-PAF to its receptors of macrophages from mouse peritoneal cavity; conditions: 4° C, 150 min, read-out: Ki, competition with [3H]-PAF binding
T1 construct: The cells in peritoneal cavity were collected after injection for 3-4 days; endogenous in cells; host or cells: adherent peritoneal macrophages of C57BL/6 mice (primary)
T1 sequence (Q62035 whole entry): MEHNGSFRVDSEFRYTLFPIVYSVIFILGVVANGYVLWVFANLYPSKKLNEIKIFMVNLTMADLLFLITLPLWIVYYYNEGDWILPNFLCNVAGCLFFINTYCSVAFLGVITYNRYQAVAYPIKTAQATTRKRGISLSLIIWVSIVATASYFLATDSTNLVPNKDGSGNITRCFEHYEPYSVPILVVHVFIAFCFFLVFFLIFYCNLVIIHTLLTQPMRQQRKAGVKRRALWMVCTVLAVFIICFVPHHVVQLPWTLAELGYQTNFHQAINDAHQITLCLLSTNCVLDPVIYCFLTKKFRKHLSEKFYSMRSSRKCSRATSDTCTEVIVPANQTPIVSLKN
Experimental: 4% of sodium mercaptoethanol was injected into C57BL/6 mouse peritoneal cavity to induce macrophages. The cells in peritoneal cavity were collected after injection for 3-4 days. 500 μl of suspension (5×10^5cells·ml^−1) was inoculated into 24-well culture plate which was placed into the incubator with 5% CO2 at 37° C for 2.5 hr. The non-adherent cells and serum in media were discarded. 490 μl of Tyrode-Hepes solution and 5 μl of [^3H]-PAF (final concentration: 2.8 nmol·L^−1) were added into each well. 5 μl of unlabeled PAF (5 μmol·L^1) was added into the well for the nonspecific binding. The series concentrations of compound were added into the well for the competitive binding and the corresponding volume of solvent was added into the wells for the total binding or the nonspecific binding. The reaction fluid was incubated at 4° C for 150 min and rinsed to wipe off the free labeled ligand. 300 μl of NaOH (0.3 mol·L^−1) was added to lyse the cells. The lysate fluid was transferred into a vial in which 7 ml of scintillation solution was added. The radioactivity strength was measured by scintillation counter.

[3] = system: mouse ear edema induced by croton oil; assay: mouse ear edema induced by croton oil; type: in vivo; conditions: orally, 50 mg·kg^−1, Kunming mice
[4] = system: cutaneous vascular permeability in mice induced by PAF; assay: increase of cutaneous vascular permeability in mice induced by PAF; type: in vivo, mouse; conditions: orally, 50 mg·kg^−1, Kunming mice
[5] = system: rat paw swelling induced by carrageenan; assay: rat paw swelling induced by carrageenan; type: in vivo; conditions: orally, 100 mg·kg^−1, Wistar rats
Experimental: Wistar rats (male, 180±20 g) were randomly divided into two groups (treatment and control) with 10 animals for each group. The animals were orally administrated with the compound or solvent, respectively. 1 hr later, 100 μl of 1% carrageenan was intracutaneously injected into the sole of right posterior foot. The perimeter of the ankle joint inflamed was measured at indicated time. The swelling level was evaluated by the difference of perimeters between the inflamed foot and non-inflamed foot.

[6] = system: adjuvant arthritis in rat; assay: adjuvant arthritis in rat (therapeutic effect); type: in vivo; conditions: orally 100 mg·kg^−1 during 19-25th day, SD rats
Experimental: SD rats (male, 190±10 g) were randomly divided into two groups (treatment and control) with 10 animals for each group. At 0 day 0.1 ml of Freund's complete adjuvant was intracutaneously injected into the right posterior foot. For therapeutic experiment the animals were orally administrated with the compound or solvent during 19-25th day. The perimeter of two ankle joint was measured and the inflammation of anterior foot, ear and tail were judged by scoring for every 3 days until 28 th day.

[7] = system: delayed hypersensitivity in rats; assay: delayed hypersensitivity in rats (type II collagen ear challenge); type: in vivo, rat; conditions: Dose 100 mg · kg^−1 × 13 d, orally
Experimental: (§1) 0.1 ml of type II H collagen (2 mg·ml^−1) was intracutaneously injected into the hind foot of Wistar rat (male, 100±10 g) (d0). Seven days later 0.1 ml of type II collagen was intracutaneously injected into the root of tail. At 19th day (d19) the animals inflamed were selected to supply the experiment and randomly divided into two groups. […] The perimeter of the ankle joint of two hind feet, weight of body was measured and the systemic inflammation (including the toes of front and hind feet, ears and tails) was judged by scoring every 3 days. At 41th day 40 μl of 0.2% type II collagen was intracutaneously injected into the right ear. Twenty-four hr later the edema level was evaluated by weighing the ponderance of ear piece (diameter: 8 mm). At 42th day the blood was collected by decapitating. The serum was separated by centrifugating. The contents of antibody for anti-type II collagen, cytokine TNF-α, IL-1β in serum were determined by ELISA kit.

TNF-α in serum = TNF-α in serum of rat with arthritis induced by type II collagen (ELISA); type: in vivo; conditions: Dose 100 mg · kg^−1 × 13 d, orally
Experimental: as §1

IgG in serum = assay: IgG (antibody for anti-type II collagen) in serum of rat with arthritis induced by type II collagen; type: in vivo; conditions: Dose 100 mg · kg^−1 × 13 d, orally
Experimental: as §1

With CCOC(=O)C1CCN(CCC(=O)/C=C/c2ccc(Cl)cc2)CC1 [Compound 3, 5-[(4-Ethoxycarbonyl)piperidyl]-1-(4-chlorophenyl)-1-penten-3-one hydrochloride] the “Inhibition (%) of β-glucuronidase release” value ([1]; Dose 2 × 10^−6 mol · L^−1, Irritant 1 × 10^−7 mol · L^−1) was 142.96%, the IC50 ([1]; Leucocyte, rat polymorphonuclear leucocytes) was 0.226 nM and the Ki [2] was 4.4 µM. For the same compound, the “Inhibition (%) of mouse ear edema” value [3] was 33.52%, the “Inhibition (%) of increase of cutaneous vascular permeability” value [4] was 53.23% and the “Inhibition (%) of rat paw swelling” value ([5]; 1 h) was 49.7%. For the same compound, the “Inhibition (%) of rat paw swelling” value ([5]; 2 h) was 55.5%, the “Inhibition (%) of rat paw swelling” value ([5]; 3 h) was 44.2% and the “Inhibition (%) of rat paw swelling” value ([5]; 4 h) was 29.0%. For the same compound, the “Inhibition (%) of rat paw swelling” value ([5]; 5 h) was 19.4%, the “Inhibition (%) of adjuvant arthritis” value ([6]; 21th day) was 31.9% and the “Inhibition (%) of adjuvant arthritis” value ([6]; 23th day) was 49.3%. The “Inhibition (%) of adjuvant arthritis” value ([6]; 25th day) was 54.5%, the “Inhibition (%) of adjuvant arthritis” value ([6]; 27th day) was 59.3% and the “Inhibition (%) of delayed hypersensitivity” value [7] was 21.2%. For the same compound, the “inhibition (%) of production of TNF-α in serum” value (TNF-α in serum) was 49.3% and the “Inhibition (%) of production of IgG in serum” value (IgG in serum) was 38.4%.
